Assay results from patent publication US20240390464A1, “Treatment of Adults With Overweight or Obesity With or Without Weight-Related Comorbidities” (Carmot Therapeutics Inc., priority 2023, published 2024).
Entries after “also recorded” stand apart in the source; their conditions may differ. Numbered stars: 1 amine (or outer) side, 2 acyl side, 3 side chain; on linkers, the order of the positions; unused ones are H or OH. Square brackets hold non-standard residues; d marks the D form. Side chains are listed from the residue outwards. Peptide text beside a SMILES is read from it. * marks the point of attachment. Isobutyryl(2-(3-CN-5-F-Ph)) = CC(C)(C(=O)*)c1cc(F)cc(C#N)c1; C20 diacid = O=C(O)CCCCCCCCCCCCCCCCCCC(=O)*; γGlu = O=C(O)[C@H](CCC(=O)[*:2])N[*:1]; AEEA = NCCOCCOCC(=O)O; Aib = CC(C)(N)C(=O)O; βAla = NCCC(=O)O

Test: Phase 1 MD Cohorts 11 and 12: safety, tolerability, disposition
Format: in vivo, human
Method: The primary objective of this study is to determine the safety and tolerability of CT-388 in participants with and without type 2 diabetes mellitus (T2DM) when administered once weekly over 12 consecutive weeks for Cohorts 11 and 14 with titrated dosing (and additionally, up to 24 weeks for Cohorts 12 and 13).
The cohorts in the MD QW study are as follows. • Cohort 11: Once weekly dose administered SC in the abdomen across 12 consecutive weeks with CT-388 or matched placebo doses of 5.0 mg administered for the first 3 weeks and then titrated to 8.0 mg for the duration of the treatment period. If a participant(s) experiences moderate to severe tolerability issues after the third dose of 5 mg, the same 5 mg dose may be continued for up to an additional 2 weeks, i.e., up-titration to 8 mg may be attempted after the fourth or fifth 5 mg dose. If participant(s) still unable to tolerate 8 mg by Day 36, then that participant(s) may continue at 5 mg for the remaining duration of the treatment period. • Cohorts 12 and 13: Once weekly dose administered SC in the abdomen titrated across 12 consecutive weeks with CT-388 or matched placebo doses of: • 5.0 mg at Day 1 and Day 8 • 8.0 mg at Day 15 and Day 22 • 12.0 mg (or 8.0 mg based on tolerability) at Day 29 and Day 36 • 17.0 mg (or 12.0 mg based on tolerability) at Day 43 and Day 50 • 22.0 mg (or 12.0 mg or 17.0 mg based on tolerability) at Day 57. • If at 22 mg on Day 57, continue that dose for the duration of the treatment period. • If at 12 mg or 17 mg on Day 57, titration to the corresponding next higher dose level may be attempted on a weekly basis based on the individual's tolerability (e.g., if on Day 57, 12 mg dose was administered and tolerated, on Day 64, dose of 17 mg may be attempted). • If not able to tolerate, continue at the previously tolerated dose level until the following week (e.g., to Day 71), at which point another attempt can be made to the next higher dose level. • Attempts to the next higher dose level can continue to be made until Day 78. The dose level achieved at Day 78 should be maintained for an additional 12 weeks of weekly dosing in the extension period, resulting in a cumulative of 24 weeks of total doses for participants in Cohorts 12 and 13. At any time during the extension period, if the maintenance dose is not tolerated, then that dose may be either lowered by one corresponding dose level (e.g., if at 22 mg, decrease to 17 mg; if at 17 mg decrease to 12 mg), and/or the dosing may be withheld for up to 2 weeks. Following this temporary dose adjustment/withholding period, attempt to titrate back up to the previous (higher) dose level should be made. […]

[1] = Cohort 12, planned target 22 mg

Compound: CC[C@H](C)[C@H](NC(=O)[C@H](CC(C)C)NC(=O)[C@H](Cc1c[nH]c2ccccc12)NC(=O)[C@H](CCC(N)=O)NC(=O)[C@@H](NC(=O)[C@H](Cc1ccccc1)NC(=O)[C@H](C)NC(=O)[C@H](CCCCNC(=O)COCCOCCNC(=O)COCCOCCNC(=O)CC[C@H](NC(=O)CCCCCCCCCCCCCCCCCCC(=O)O)C(=O)O)NC(=O)[C@H](CCC(N)=O)NC(=O)[C@H](C)NC(=O)[C@@H](NC(=O)[C@H](CCCCN)NC(=O)[C@H](CC(=O)O)NC(=O)[C@H](CC(C)C)NC(=O)C(C)(C)NC(=O)[C@@H](NC(=O)[C@H](CO)NC(=O)[C@H](Cc1ccc(O)cc1)NC(=O)[C@H](CC(=O)O)NC(=O)[C@H](CO)NC(=O)[C@@H](NC(=O)[C@H](Cc1ccccc1)NC(=O)[C@@H](NC(=O)CNC(=O)[C@H](CCC(=O)O)NC(=O)CCNC(=O)C(C)(C)c1cc(F)cc(C#N)c1)[C@@H](C)O)[C@@H](C)O)[C@@H](C)CC)[C@@H](C)CC)C(C)C)C(=O)N[C@@H](C)C(=O)NCC(=O)NCC(=O)N1CCC[C@H]1C(=O)N[C@@H](CO)C(=O)N[C@@H](CO)C(=O)NCC(=O)N[C@@H](C)C(=O)N1CCC[C@H]1C(=O)N1CCC[C@H]1C(=O)N1CCC[C@H]1C(=O)N[C@@H](CO)C(N)=O [CT-388] ({Isobutyryl(2-(3-CN-5-F-Ph))-βAla}-EGTFTSDYSI[Aib]LDKIAQK([AEEA-AEEA-γGlu-C20 diacid])AFVQWLIAGGPSSGAPPPS-NH2)
- SAEs or severe treatment related GI-related AEs (CT-388 participants, up to 24 weeks): No SAEs or severe treatment related GI-related AEs; also recorded: No SAEs or severe treatment related GI-related TEAE
- patients dosed per planned path and completed treatment on 22 mg [1]: 75%
- patients with dose down-titration who completed treatment on 12 mg [1]: 25%
- safety and tolerability (up to 24 weeks of treatment, up to 22 mg SC QW): generally safe and well-tolerated
